Key:
corn [1] = experiment: Test Example 1, foliar treatment, phytotoxicity to corn; format: in vivo; details: 3 weeks; further: ranges in brackets are in %
Method: (§1) The application of the tetrahydrophthalimides (I) as herbicides will be illustratively shown in the following Examples wherein the phytotoxicity to cultivated plants and the herbicidal activity on weeds were evaluated as follows: the aerial parts of the test plants were cut off and weighed (fresh weight); the percentage of the fresh weight of the treated plant to that of the untreated plant was calculated with the latter fresh weight taken as 100; and the crop damage and the herbicidal activity were evaluated by the standard given in the table below. The rating values of phytotoxicity, 0 and 1, and those of herbicidal effect, 5 and 4, are generally regarded as satisfactory to protect cultivated plants and control weeds, respectively. The rating values in the paddy field test alone were calculated from the dry weight of the test plants.
(§2) Plastic beakers (diameter, 10 cm; height, 10 cm) were filled with upland field soil, and the seeds of corn, barnyardgrass, wild oat, wild mustard and velvetleaf were separately sown in the beakers and grown for 2 weeks in the greenhouse. A designed amount of the test compound was sprayed to the foliage of the test plants by means of a small hand sprayer. After the spraying, the test plants were further grown for 3 weeks in the greenhouse, and herbicidal activity was examined. In this foliar treatment, the test compounds were formulated into an emulsifiable concentrate according to Preparation Example 2 and applied at a spray volume of 5 liters per are by dispersing it in water with the addition of a spreading agent.

barnyardgrass = experiment: Test Example 1, foliar treatment, herbicidal activity; format: in vivo, Echinochloa crus-galli; details: 3 weeks; further: ranges in brackets are in %
Method: as §1, §2

wild oat = experiment: as above; format: in vivo, Avena fatua; details: 3 weeks; further: ranges in brackets are in %
Method: as §1, §2

wild mustard = experiment: as above; format: in vivo, Brassica kaber; details: 3 weeks
Method: as §1, §2

velvetleaf [2] = experiment: as above; format: in vivo, Abutilon theophrasti; details: 3 weeks
Method: as §1, §2

corn [3] = experiment: Test Example 3, soil surface spraying, phytotoxicity to corn; format: in vivo; details: 20 days; further: ranges in brackets are in %
Method: as §1
(§3) Plastic trays (35 cm×25 cm×15 cm) were filled with upland field soil, and the seeds of tall morningglory, velvetleaf and sicklepod and the seeds of corn were sown therein. A designed amount of the test compounds formulated into a wettable powder according to Preparation Example 1 was dispersed in water and applied by spraying at a spray volume of 5 liters per are to the whole surface of the soil. After the spraying, the test plants were placed in a greenhouse and grown for 20 days, and herbicidal activity and phytotoxicity were examined.

tall morningglory = experiment: Test Example 3, soil surface spraying, herbicidal activity; format: in vivo, Ipomoea purpurea; details: 20 days; further: ranges in brackets are in %
Method: as §1, §3

sicklepod = experiment: as above; format: in vivo, Cassia obtusifolia; details: 20 days; further: ranges in brackets are in %
Method: as §1, §3

velvetleaf [4] = experiment: as above; format: in vivo, Abutilon theophrasti; details: 20 days
Method: as §1, §3

corn [5] = experiment: Test Example 4, pre-emergence treatment, phytotoxicity to corn; format: in vivo; details: 20 days; further: ranges in brackets are in %
Method: as §1
(§4) Plastic beakers (diameter, 10 cm; height, 10 cm) were filled with upland field soil, and the seeds of corn, cotton and soybean and the seeds of morningglory, velvetleaf, Johnsongrass and green foxtail were separately sown in the beakers. A designed amount of the test compound was sprayed over the top by means of a small hand sprayer. After the spraying, the test plants were grown for 20 days in the greenhouse, and herbicidal activity and phytotoxicity were examined. In this pre-emergence treatment, the test compounds were formulated into an emulsifiable concentrate according to Preparation Example 2 and applied at a spray volume of 5 liters per are by dispersing it in water with the addition of a spreading agent.

cotton = experiment: Test Example 4, pre-emergence treatment, phytotoxicity to cotton; format: in vivo; details: 20 days; further: ranges in brackets are in %
Method: as §1, §4

soybean = experiment: Test Example 4, pre-emergence treatment, phytotoxicity to soybean; format: in vivo; details: 20 days; further: ranges in brackets are in %
Method: as §1, §4

morningglory = experiment: Test Example 4, pre-emergence treatment, herbicidal activity; format: in vivo; details: 20 days; further: ranges in brackets are in %
Method: as §1, §4

velvetleaf [6] = experiment: as above; format: in vivo, Abutilon theophrasti; details: 20 days
Method: as §1, §4

Johnsongrass = experiment: as above; format: in vivo, Sorghum halepense; details: 20 days; further: ranges in brackets are in %
Method: as §1, §4

green foxtail = experiment: as above; format: in vivo, Setaria viridis; details: 20 days; further: ranges in brackets are in %
Method: as §1, §4
Wherever Herbicidal activity, Velvetleaf is given: ranges in brackets are in %.

| Structure (SMILES) | Phytotoxicity, Corn (corn [1]; 1.25 g/are) | Phytotoxicity, Corn (corn [1]; 5 g/are) | Herbicidal activity, Barnyardgrass (barnyardgrass; 1.25 g/are) | Herbicidal activity, Barnyardgrass (barnyardgrass; 5 g/are) | Herbicidal activity, Wild cat (wild oat; 1.25 g/are) | Herbicidal activity, Wild cat (wild oat; 5 g/are) | Herbicidal activity, Wild mustard (wild mustard; 1.25 g/are) | Herbicidal activity, Wild mustard (wild mustard; 5 g/are) | Herbicidal activity, Velvetleaf (velvetleaf [2]; 1.25 g/are) | Herbicidal activity, Velvetleaf (velvetleaf [2]; 5 g/are) | Phytotoxicity, Corn (corn [5]; 2.5 g/are) | Phytotoxicity, Corn (corn [5]; 10 g/are) | Phytotoxicity, Cotton (cotton; 2.5 g/are) | Phytotoxicity, Cotton (cotton; 10 g/are) | Herbicidal activity, Morningglory (morningglory; 10 g/are) | Herbicidal activity, Velvetleaf (velvetleaf [6]; 2.5 g/are) | Herbicidal activity, Velvetleaf (velvetleaf [6]; 10 g/are) | Herbicidal activity, Johnsongrass (Johnsongrass; 2.5 g/are) | Herbicidal activity, Johnsongrass (Johnsongrass; 10 g/are) | Herbicidal activity, Green foxtail (green foxtail; 10 g/are) | also measured |
| --- | --- | --- | --- | --- | --- | --- | --- | --- | --- | --- | --- | --- | --- | --- | --- | --- | --- | --- | --- | --- | --- |
| CCOc1cc(N2C(=O)C3=C(CCCC3)C2=O)c(F)cc1Cl [compound 2] | 0 (100) | 1 (90-99) | 3 (11-20) | 5 (0) | 3 (11-20) | 5 (0) | 5 (0) | 5 (0) | 5 (0) | 5 (0) | 0 (100) | 1 (90-99) | 0 (100) | 0 (100) | 4 (1-10) | 5 (0) | 5 (0) | 4 (1-10) | 5 (0) | 5 (0) | Phytotoxicity, Corn (corn [3]; 5 g/are): 0 (100); Phytotoxicity, Corn (corn [3]; 10 g/are): 0 (100); Herbicidal activity, Tall morningglory (tall morningglory; 5 g/are): 4 (1-10); Herbicidal activity, Tall morningglory (tall morningglory; 10 g/are): 4 (1-10); Herbicidal activity, Sicklepod (sicklepod; 5 g/are): 4 (1-10); Herbicidal activity, Sicklepod (sicklepod; 10 g/are): 5 (0); Herbicidal activity, Velvetleaf (velvetleaf [4]; 5 g/are): 5 (0); Herbicidal activity, Velvetleaf (velvetleaf [4]; 10 g/are): 5 (0); Phytotoxicity, Soybean (soybean; 2.5 g/are): 0 (100); Phytotoxicity, Soybean (soybean; 10 g/are): 0 (100); Herbicidal activity, Morningglory (morningglory; 2.5 g/are): 4 (1-10); Herbicidal activity, Green foxtail (green foxtail; 2.5 g/are): 4 (1-10) |
| CCCOc1cc(N2C(=O)C3=C(CCCC3)C2=O)c(F)cc1Cl [compound 3] | 0 (100) | 1 (90-99) | 4 (1-10) | 5 (0) | 4 (1-10) | 5 (0) | 5 (0) | 5 (0) | 5 (0) | 5 (0) | 0 (100) | 1 (90-99) | – | – | 4 (1-10) | 5 (0) | 5 (0) | 4 (1-10) | 5 (0) | 5 (0) | Phytotoxicity, Corn (corn [3]; 5 g/are): 0 (100); Phytotoxicity, Corn (corn [3]; 10 g/are): 0 (100); Herbicidal activity, Tall morningglory (tall morningglory; 5 g/are): 4 (1-10); Herbicidal activity, Tall morningglory (tall morningglory; 10 g/are): 5 (0); Herbicidal activity, Sicklepod (sicklepod; 5 g/are): 4 (1-10); Herbicidal activity, Sicklepod (sicklepod; 10 g/are): 5 (0); Herbicidal activity, Velvetleaf (velvetleaf [4]; 5 g/are): 5 (0); Herbicidal activity, Velvetleaf (velvetleaf [4]; 10 g/are): 5 (0); Herbicidal activity, Morningglory (morningglory; 2.5 g/are): 4 (1-10); Herbicidal activity, Green foxtail (green foxtail; 2.5 g/are): 4 (1-10) |
| CCOc1cc(N2C(=O)C3=C(CCCC3)C2=O)c(F)cc1Br [compound 13] | 0 (100) | 1 (90-99) | 2 (21-40) | 5 (0) | 2 (21-40) | 5 (0) | 5 (0) | 5 (0) | 5 (0) | 5 (0) | 0 (100) | 0 (100) | 0 (100) | 1 (90-99) | 5 (0) | 4 (1-10) | 5 (0) | 4 (1-10) | 5 (0) | 5 (0) | Phytotoxicity, Soybean (soybean; 2.5 g/are): 0 (100); Phytotoxicity, Soybean (soybean; 10 g/are): 1 (90-99); Herbicidal activity, Green foxtail (green foxtail; 2.5 g/are): 4 (1-10) |
| CCCOc1cc(N2C(=O)C3=C(CCCC3)C2=O)c(F)cc1Br [compound 14] | 0 (100) | 1 (90-99) | 3 (11-20) | 5 (0) | 3 (11-20) | 5 (0) | 5 (0) | 5 (0) | 5 (0) | 5 (0) | 0 (100) | 0 (100) | 0 (100) | 0 (100) | 4 (1-10) | 4 (1-10) | 5 (0) | 4 (1-10) | 4 (1-10) | 4 (1-10) | Phytotoxicity, Soybean (soybean; 2.5 g/are): 0 (100); Phytotoxicity, Soybean (soybean; 10 g/are): 1 (90-99); Herbicidal activity, Green foxtail (green foxtail; 2.5 g/are): 4 (1-10) |
| CCC(C)Oc1cc(N2C(=O)C3=C(CCCC3)C2=O)c(F)cc1Br (centres unmarked) [compound 15] | 0 (100) | 1 (90-99) | 2 (21-40) | 5 (0) | 2 (21-40) | 5 (0) | 5 (0) | 5 (0) | 5 (0) | 5 (0) | 0 (100) | 0 (100) | 0 (100) | 1 (90-99) | 5 (0) | 4 (1-10) | 5 (0) | 4 (1-10) | 4 (1-10) | 4 (1-10) | Phytotoxicity, Soybean (soybean; 2.5 g/are): 0 (100); Phytotoxicity, Soybean (soybean; 10 g/are): 1 (90-99) |
